According to US5756120A, “Antibiotic formulation and use for drug resistant infections” (NeXstar Pharmaceuticals, Inc., priority 1995, dated 1998):
Where “and” joins values, the source holds several entries; their conditions need not be identical. Equal entries are not always repeated. Entries after “also recorded” stand apart in the source; their conditions may differ. Where two headings read alike, the source gives them in different places.

System: M. tuberculosis drug resistant strain Vertulla
Format: cell-based
Settings: for CFU (1 × 10^3): duplicate values; for inhibition or killing of drug resistant M. tuberculosis: concentrations tested (4, 8 and 16 μg/ml)

Question: What does the source list for `NCC[C@H](O)C(=O)N[C@@H]1C[C@H](N)[C@@H](O[C@H]2O[C@H](CN)[C@@H](O)[C@H](O)[C@H]2O)[C@H](O)[C@H]1O[C@H]1O[C@H](CO)[C@@H](O)[C@H](N)[C@H]1O` [amikacin]?
Answer: Avg. log CFU (4 μg/ml, day 4): 3.9 log CFU; CFU (1 × 10^3) (4 μg/ml, day 4): 9.3 1 × 10^3 CFU and 8.0 1 × 10^3 CFU; Avg. log CFU (4 μg/ml, day 7): 5.2 log CFU; Avg. log CFU (8 μg/ml, day 4): 3.7 log CFU; CFU (1 × 10^3) (8 μg/ml, day 4): 5 1 × 10^3 CFU and 4 1 × 10^3 CFU; Avg. log CFU (8 μg/ml, day 7): 3.7 log CFU; CFU (1 × 10^3) (8 μg/ml, day 7): 4.5 1 × 10^3 CFU and 6.2 1 × 10^3 CFU; Avg. log CFU (16 μg/ml, day 4): 3.7 log CFU; CFU (1 × 10^3) (16 μg/ml, day 4): 5 1 × 10^3 CFU and 5.4 1 × 10^3 CFU; Avg. log CFU (16 μg/ml, day 7): 3.6 log CFU; CFU (1 × 10^3) (16 μg/ml, day 7): 3.7 1 × 10^3 CFU and 4.1 1 × 10^3 CFU; inhibition or killing of drug resistant M. tuberculosis (listed as free amikacin): at the most, inhibition; also recorded: only inhibit the growth of the infection without killing at the concentrations tested; inhibition or killing of drug resistant M. tuberculosis (listed as free drug): only inhibits the growth of the bacteria
